Source: patent publication US20230045421A1 (priority 2018, published 2023)
Where two headings read alike, the source gives them in different places.

System: HBV rcDNA
Test: HepDE19 assay with bDNA quantitation of HBV rcDNA
Assay type: cell-based, hepatitis B virus
Method: HepDE19 Assay with bDNA Quantitation of HBV rcDNA:
HepDE19 cell culture system is a HepG2 (human hepatocarcinoma) derived cell line that supports HBV DNA replication and cccDNA formation in a tetracycline (Tet)-regulated manner and produces HBV rcDNA and a detectable reporter molecule dependent on the production and maintenance of cccDNA (Guo, et al., 2007, J. Virol. 81:12472-12484).
HepDE19 (50,000 cells/well) were plated in 96-well collagen-coated tissue-culture treated microtiter plates in DMEM/F12 medium supplemented with 10% fetal bovine serum, 1% penicillin-streptomycin and 1 μg/mL tetracycline and incubated in a humidified incubator at 37° C. and 5% CO2 overnight. Next day, the cells were switched to fresh medium without tetracycline and incubated for 4 hours at 37° C. and 5% CO2. The cells were treated with fresh Tet-free medium with compounds at concentrations starting at 25 μM and a serial, […], 8-point, titration series in duplicate. The final DMSO concentration in the assay was 0.5%. The plates were incubated for 7 days in a humidified incubator at 37° C. and 5% CO2. Following a 7 day-incubation, the level of rcDNA present in the inhibitor-treated wells was measured using a Quantigene 2.0 bDNA assay kit (Affymetrix, Santa Clara, Calif.) with HBV specific custom probe set and manufacturers instructions. Concurrently, the effect of compounds on cell viability was assessed using replicate plates, plated at a density of 5,000 cells/well and incubated for 4 days, to determine the ATP content as a measure of cell viability using the cell-titer glo reagent (CTG; Promega Corporation, Madison, Wis.) as per manufacturer's instructions. The plates were read using a Victor luminescence plate reader (PerkinElmer Model 1420 Multilabel counter) and the relative luminescence units (RLU) data generated from each well was calculated as % inhibition of the untreated control wells and analyzed using XL-Fit module in Microsoft Excel to determine EC50 and EC90 (bDNA) and CC50 (CTG) values using a 4-parameter curve fitting algorithm.

[1] = HepDE19 assay, inhibition of formation of relaxed circular DNA (rcDNA), bDNA quantitation, read-out: DE-19bDNA EC50
[2] = Hepatitis B virus, HepDE19, HepDE19 assay, inhibition of formation of rcDNA, read-out: DE-19bDNA EC50
[3] = HepDE19 assay, inhibition of formation of rcDNA, read-out: DE-19bDNA EC50

## CC(c1c[nH]c(=O)c2cc(F)c(F)cc12)N(C)C(=O)Nc1ccc(F)c(F)c1 (single isomer, unassigned) [Compound 408, 1-(1-(6,7-Difluoro-1-oxo-1,2-dihydroisoquinolin-4-yl)ethyl)-3-(3,4-difluorophenyl)-1-methylurea]
[1]
  EC50: 3.4 µM

## CC(c1c[nH]c(=O)c2cc(F)c(F)cc12)N(C)C(=O)N[C@H](C)c1ccccc1 (single isomer, unassigned) [Compound 479]
Hepatitis B virus, HepDE19, read-out: DE-19bDNA EC50 (μM), HepDE19 assay, inhibition of formation of relaxed circular DNA (rcDNA), bDNA quantitation
  EC50: 9.4 µM

## CC(c1c[nH]c(=O)c2ccccc12)N(CCC(=O)O)C(=O)Nc1ccc(F)c(Cl)c1 (single isomer, unassigned) [Compound 208, 3-(3-(3-Chloro-4-fluorophenyl)-1-(1-(1-oxo-1,2-dihydroisoquinolin-4-yl)ethyl)ureido)propanoic acid]
[2]
  EC50: 3.3 µM

## COc1ncc(CN(C(=O)Nc2ccc(F)c(Cl)c2)C(C)C)c2ccccc12 [Compound 19, 3-(3-Chloro-4-fluorophenyl)-1-isopropyl-1-((1-methoxyisoquinolin-4-yl)methyl)urea]
[2]
  EC50: 2.1 µM

## CCOCCN(C(=O)Nc1ccc(F)c(Cl)c1)C(C)c1c[nH]c(=O)c2ccccc12 (single isomer, unassigned) [Compound 109, 3-(3-Chloro-4-fluorophenyl)-1-(2-ethoxyethyl)-1-(1-(1-oxo-1,2-dihydroisoquinolin-4-yl)ethyl)urea]
read-out: DE-19bDNA EC50, HepDE19 assay, inhibition of formation of rcDNA
  EC50: 8 µM

## CC(c1c[nH]c(=O)c2cc(F)c(F)cc12)N(C)C(=O)NCc1ccc(F)c(F)c1 (single isomer, unassigned) [Compound 476, 1-(1-(6,7-Difluoro-1-oxo-1,2-dihydroisoquinolin-4-yl)ethyl)-3-(3,4-difluorobenzyl)-1-methylurea]
[1]
  EC50: 0.43 µM

## CC(c1c[nH]c(=O)c2c(F)c(F)ccc12)N(C)C(=O)NCc1ccc(F)c(Cl)c1 (single isomer, unassigned) [Compound 496, 3-(3-Chloro-4-fluorobenzyl)-1-(1-(7,8-difluoro-1-oxo-1,2-dihydroisoquinolin-4-yl)ethyl)-1-methylurea]
[1]
  EC50: 7.7 µM

## CC(c1cnc(NCCO)c2ccccc12)N(C)C(=O)Nc1ccc(F)c(Cl)c1 (single isomer, unassigned) [Compound 243, 3-(3-Chloro-4-fluorophenyl)-1-(1-(1-((2-hydroxyethyl)amino)isoquinolin-4-yl)ethyl)-1-methylurea]
[3]
  EC50: 9.9 µM

## CC(c1c[nH]c(=O)c2ccccc12)N(CCCC#N)C(=O)Nc1ccc(F)c(Cl)c1 (single isomer, unassigned) [Compound 114, 3-(3-Chloro-4-fluorophenyl)-1-(3-cyanopropyl)-1-(1-(1-oxo-1,2-dihydroisoquinolin-4-yl)ethyl)urea]
[3]
  EC50: 1.9 µM

## CC(c1c[nH]c(=O)c2c(F)c(F)ccc12)N(C)C(=O)Nc1ccc(Cl)cc1 (single isomer, unassigned) [Compound 445, 3-(4-Chlorophenyl)-1-(1-(7,8-difluoro-1-oxo-1,2-dihydroisoquinolin-4-yl)ethyl)-1-methylurea]
read-out: DE-19bDNA EC50, HepDE19 assay, inhibition of formation of relaxed circular DNA (rcDNA), bDNA quantitation
  EC50: 0.22 µM

## CC(c1c[nH]c(=O)c2ccccc12)N(C)C(=O)Nc1ccc(F)c(Cl)c1 (racemic) [Compound 12, 3-(3-Chloro-4-fluorophenyl)-1-methyl-1-(1-(1-oxo-1,2-dihydroisoquinolin-4-yl)ethyl)urea]
[2]
  EC50: 0.16 µM

## CC(c1c[nH]c(=O)c2c(F)c(F)ccc12)N(C)C(=O)NCc1cc(F)c(F)c(F)c1 (single isomer, unassigned) [Compound 494, 1-(1-(7,8-Difluoro-1-oxo-1,2-dihydroisoquinolin-4-yl)ethyl)-1-methyl-3-(3,4,5-trifluorobenzyl)urea]
[1]
  EC50: 0.89 µM

## CCCN(C(=O)Nc1ccc(F)c(C)c1)[C@H](C)c1c[nH]c(=O)c2ccccc12 [Compound 43, (R)-3-(4-Fluoro-3-methylphenyl)-1-(1-(1-oxo-1,2-dihydroisoquinolin-4-yl)ethyl)-1-propylurea]
[2]
  EC50: 0.01 µM

## CC(c1c[nH]c(=O)c2c(F)c(F)ccc12)N(CCS(N)(=O)=O)C(=O)Nc1ccc(F)c(Cl)c1 (single isomer, unassigned) [Compound 391, 2-(3-(3-Chloro-4-fluorophenyl)-1-(1-(7,8-difluoro-1-oxo-1,2-dihydroisoquinolin-4-yl)ethyl)ureido) ethane-1-sulfonamide]
[1]
  EC50: 2.9 µM

## CC(c1c[nH]c(=O)c2ccccc12)N(CC1COC(C)(C)OC1)C(=O)Nc1ccc(F)c(Cl)c1 (single isomer, unassigned) [Compound 273, 3-(3-Chloro-4-fluorophenyl)-1-((2,2-dimethyl-1,3-dioxan-5-yl)methyl)-1-(1-(1-oxo-1,2-dihydroisoquinolin-4-yl)ethyl)urea]
[3]
  EC50: 0.17 µM

## CCOCCN(C(=O)Nc1ccc(F)c(Cl)c1)C(C)c1cnc(OC)c2ccccc12 (single isomer, unassigned) [Compound 125, 3-(3-Chloro-4-fluorophenyl)-1-(2-ethoxyethyl)-1-(1-(1-methoxyisoquinolin-4-yl)ethyl)urea]
[3]
  EC50: 20 µM

## CC(c1cn(C2CC2)c(=O)c2ccccc12)N(C)C(=O)Nc1ccc(F)c(Cl)c1 (single isomer, unassigned) [Compound 190, 3-(3-Chloro-4-fluorophenyl)-1-(1-(2-cyclopropyl-1-oxo-1,2-dihydroisoquinolin-4-yl)ethyl)-1-methylurea]
[3]
  EC50: 0.17 µM

## CC(c1cn(C)c(=O)c2cc(F)ccc12)N(C)C(=O)Nc1ccc(F)c(Cl)c1 (single isomer, unassigned) [Compound 303, 3-(3-Chloro-4-fluorophenyl)-1-(1-(7-fluoro-2-methyl-1-oxo-1,2-dihydroisoquinolin-4-yl)ethyl)-1-methylurea]
[1]
  EC50: 0.02 µM

## CC(c1cnc(-n2cncn2)c2ccccc12)N(C)C(=O)Nc1ccc(F)c(Cl)c1 (racemic) [Compound 297, 1-(1-(1-(1H-1,2,4-triazol-1-yl)isoquinolin-4-yl)ethyl)-3-(3-chloro-4-fluorophenyl)-1-methylurea]
Hepatitis B virus, HepDE19, HepDE19 assay, inhibition of formation of relaxed circular DNA (rcDNA), bDNA quantitation, read-out: DE-19bDNA EC50
  EC50: 0.18 µM

## CC(C)CN(C(=O)Nc1ccc(F)c(Cl)c1)C(C)c1c[nH]c(=O)c2c(F)cc(F)cc12 (single isomer, unassigned) [Compound 446, 3-(3-Chloro-4-fluorophenyl)-1-(1-(6,8-difluoro-1-oxo-1,2-dihydroisoquinolin-4-yl)ethyl)-1-isobutylurea]
[1]
  EC50: 0.59 µM

## CC(c1cnc(NCc2nc[nH]n2)c2ccccc12)N(C)C(=O)Nc1ccc(F)c(Cl)c1 (single isomer, unassigned) [Compound 248, 1-(1-(1-(((1H-1,2,4-Triazol-3-yl)methyl)amino)isoquinolin-4-yl)ethyl)-3-(3-chloro-4-fluorophenyl)-1-methylurea]
[3]
  EC50: 9.1 µM

## COc1ccc2c(C(C)N(C)C(=O)Nc3ccc(F)c(Cl)c3)c[nH]c(=O)c2c1 (single isomer, unassigned) [Compound 177, 3-(3-Chloro-4-fluorophenyl)-1-(1-(7-methoxy-1-oxo-1,2-dihydroisoquinolin-4-yl)ethyl)-1-methylurea]
[3]
  EC50: 2.2 µM

## CC(C)CN(C(=O)Nc1ccc(F)cc1)C(C)c1c[nH]c(=O)c2cc(F)c(F)cc12 (single isomer, unassigned) [Compound 287, 1-(1-(6,7-Difluoro-1-oxo-1,2-dihydroisoquinolin-4-yl)ethyl)-3-(4-fluorophenyl)-1-isobutylurea]
[1]
  EC50: 1.5 µM

## CNS(=O)(=O)CCCN(C(=O)Nc1ccc(F)c(Cl)c1)C(C)c1c[nH]c(=O)c2ccccc12 (single isomer, unassigned) [Compound 220, 3-(3-(3-Chloro-4-fluorophenyl)-1-(1-(1-oxo-1,2-dihydroisoquinolin-4-yl)ethyl)ureido)-N-methylpropane-1-sulfonamide]
[2]
  EC50: 0.14 µM

## CCOCCN(C(=O)Nc1ccc(F)c(Cl)c1)C(C)c1cnc(OC)c2ccccc12 (single isomer, unassigned) [Compound 126, 3-(3-Chloro-4-fluorophenyl)-1-(2-ethoxyethyl)-1-(1-(1-methoxyisoquinolin-4-yl)ethyl)urea]
[3]
  EC50: 0.63 µM

## CC(c1c[nH]c(=O)c2ccccc12)N(Cc1ccccn1)C(=O)Nc1ccc(F)c(Cl)c1 (single isomer, unassigned) [Compound 304, 3-(3-Chloro-4-fluorophenyl)-1-(1-(1-oxo-1,2-dihydroisoquinolin-4-yl)ethyl)-1-(pyridin-2-ylmethyl) urea]
[1]
  EC50: 9.6 µM
